{"source": "ChEMBL document CHEMBL5365456", "about": "“Isolation and biological activity of natural chalcones based on antibacterial mechanism classification” (Bioorg Med Chem, 2023)", "test_system": "Mycobacterium tuberculosis", "assay": "Antitubercular activity against multi-drug-resistant Mycobacterium tuberculosis M22 assessed as bacterial growth inhibition measured for 9 days", "format": "functional", "conditions": "M22, 216 h, time 9 day", "data": [{"smiles": "O=C(CCc1ccc(O)cc1)c1c(O)cc(O)cc1O", "note": "[PHLORETIN]", "values": [{"measurement": "MIC90", "result": 182, "unit": "µM"}]}]}
